{"source": "ChEMBL document CHEMBL5465560", "about": "“Selectivity Literature for EUbOPEN Chemogenomic Library” (2024)", "key": {"[1]": {"biological_target": "T1, Serine/threonine-protein kinase Sgk3 (Homo sapiens) (UniProt Q96BR1)", "T1 sequence (whole entry)": "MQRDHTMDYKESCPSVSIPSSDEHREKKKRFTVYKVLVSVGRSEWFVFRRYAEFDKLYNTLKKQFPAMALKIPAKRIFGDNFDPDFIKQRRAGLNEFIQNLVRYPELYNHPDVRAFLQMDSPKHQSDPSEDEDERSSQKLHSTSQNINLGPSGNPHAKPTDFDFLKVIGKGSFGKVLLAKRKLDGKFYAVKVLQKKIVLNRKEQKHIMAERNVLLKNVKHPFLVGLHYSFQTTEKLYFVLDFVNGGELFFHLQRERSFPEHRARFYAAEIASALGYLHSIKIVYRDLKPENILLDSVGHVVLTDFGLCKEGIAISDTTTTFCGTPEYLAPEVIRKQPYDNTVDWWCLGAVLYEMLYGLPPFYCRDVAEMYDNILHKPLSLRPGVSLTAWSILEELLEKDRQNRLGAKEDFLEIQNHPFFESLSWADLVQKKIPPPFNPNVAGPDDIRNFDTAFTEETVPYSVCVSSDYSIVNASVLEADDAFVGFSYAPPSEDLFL", "experiment": "Selectivity interaction (Kinase screening (Nanosyn)) EUB0000604a SGK3"}, "[2]": {"biological_target": "5-hydroxytryptamine receptor 2A (Homo sapiens, UniProt P28223)", "sequence (P28223 whole entry)": "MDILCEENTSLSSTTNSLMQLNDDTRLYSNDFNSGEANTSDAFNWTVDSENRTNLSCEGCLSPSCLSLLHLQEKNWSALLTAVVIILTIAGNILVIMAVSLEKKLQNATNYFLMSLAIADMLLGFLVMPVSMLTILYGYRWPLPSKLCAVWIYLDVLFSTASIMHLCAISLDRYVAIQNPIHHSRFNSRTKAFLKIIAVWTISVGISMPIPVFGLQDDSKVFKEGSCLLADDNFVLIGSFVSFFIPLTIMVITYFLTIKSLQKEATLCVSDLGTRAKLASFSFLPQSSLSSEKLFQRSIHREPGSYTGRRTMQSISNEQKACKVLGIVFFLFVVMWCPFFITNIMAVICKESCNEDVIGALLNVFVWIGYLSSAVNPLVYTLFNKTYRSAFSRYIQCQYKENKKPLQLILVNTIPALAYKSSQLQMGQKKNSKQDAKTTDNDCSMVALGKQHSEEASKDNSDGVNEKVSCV", "experiment": "Selectivity interaction (Panel of kinases, GPCRs, ion channels and transporters (enzymatic assay)) EUB0000266bCl HTR2A"}, "[3]": {"biological_target": "Cyclin-dependent kinase 5 (Homo sapiens, UniProt Q00535)", "sequence (Q00535 whole entry, looked up)": "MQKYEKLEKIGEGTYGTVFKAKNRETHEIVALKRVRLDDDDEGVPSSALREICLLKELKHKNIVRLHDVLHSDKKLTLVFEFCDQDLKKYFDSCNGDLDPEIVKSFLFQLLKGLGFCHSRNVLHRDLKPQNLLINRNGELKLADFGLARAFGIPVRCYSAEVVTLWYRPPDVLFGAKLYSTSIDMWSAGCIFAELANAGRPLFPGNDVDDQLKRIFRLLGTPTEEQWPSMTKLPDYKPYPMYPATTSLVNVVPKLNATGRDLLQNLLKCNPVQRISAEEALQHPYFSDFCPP", "experiment": "Selectivity interaction (ActivX KiNativ screen (kinase selectivity in THP-1 cell lysates)) EUB0000639a CDK5", "format": "subcellular", "details": "lysate, at 0.01 µM"}, "[4]": {"biological_target": "Cell division cycle 7-related protein kinase (Homo sapiens, UniProt O00311)", "sequence (O00311 whole entry)": "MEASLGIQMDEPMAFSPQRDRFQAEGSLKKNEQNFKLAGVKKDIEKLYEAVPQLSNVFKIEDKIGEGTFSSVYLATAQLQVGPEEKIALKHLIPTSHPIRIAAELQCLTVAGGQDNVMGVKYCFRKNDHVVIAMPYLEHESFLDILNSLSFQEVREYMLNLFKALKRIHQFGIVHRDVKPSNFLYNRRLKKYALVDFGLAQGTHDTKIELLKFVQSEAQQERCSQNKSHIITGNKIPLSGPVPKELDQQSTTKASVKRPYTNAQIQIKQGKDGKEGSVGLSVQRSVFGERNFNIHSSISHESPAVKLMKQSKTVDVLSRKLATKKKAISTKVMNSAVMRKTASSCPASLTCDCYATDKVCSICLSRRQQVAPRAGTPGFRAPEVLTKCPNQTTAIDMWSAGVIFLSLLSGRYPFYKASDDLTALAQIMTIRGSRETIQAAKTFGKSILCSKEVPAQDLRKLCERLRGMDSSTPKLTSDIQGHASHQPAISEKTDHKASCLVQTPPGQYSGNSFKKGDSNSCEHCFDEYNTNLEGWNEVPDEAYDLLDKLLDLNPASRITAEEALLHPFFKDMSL", "experiment": "Selectivity interaction (Kinase panel (Enzyme activity assay)) EUB0000612a CDC7"}, "[5]": {"biological_target": "Myosin light chain kinase, smooth muscle (Homo sapiens, UniProt Q15746)", "sequence (Q15746 whole entry)": "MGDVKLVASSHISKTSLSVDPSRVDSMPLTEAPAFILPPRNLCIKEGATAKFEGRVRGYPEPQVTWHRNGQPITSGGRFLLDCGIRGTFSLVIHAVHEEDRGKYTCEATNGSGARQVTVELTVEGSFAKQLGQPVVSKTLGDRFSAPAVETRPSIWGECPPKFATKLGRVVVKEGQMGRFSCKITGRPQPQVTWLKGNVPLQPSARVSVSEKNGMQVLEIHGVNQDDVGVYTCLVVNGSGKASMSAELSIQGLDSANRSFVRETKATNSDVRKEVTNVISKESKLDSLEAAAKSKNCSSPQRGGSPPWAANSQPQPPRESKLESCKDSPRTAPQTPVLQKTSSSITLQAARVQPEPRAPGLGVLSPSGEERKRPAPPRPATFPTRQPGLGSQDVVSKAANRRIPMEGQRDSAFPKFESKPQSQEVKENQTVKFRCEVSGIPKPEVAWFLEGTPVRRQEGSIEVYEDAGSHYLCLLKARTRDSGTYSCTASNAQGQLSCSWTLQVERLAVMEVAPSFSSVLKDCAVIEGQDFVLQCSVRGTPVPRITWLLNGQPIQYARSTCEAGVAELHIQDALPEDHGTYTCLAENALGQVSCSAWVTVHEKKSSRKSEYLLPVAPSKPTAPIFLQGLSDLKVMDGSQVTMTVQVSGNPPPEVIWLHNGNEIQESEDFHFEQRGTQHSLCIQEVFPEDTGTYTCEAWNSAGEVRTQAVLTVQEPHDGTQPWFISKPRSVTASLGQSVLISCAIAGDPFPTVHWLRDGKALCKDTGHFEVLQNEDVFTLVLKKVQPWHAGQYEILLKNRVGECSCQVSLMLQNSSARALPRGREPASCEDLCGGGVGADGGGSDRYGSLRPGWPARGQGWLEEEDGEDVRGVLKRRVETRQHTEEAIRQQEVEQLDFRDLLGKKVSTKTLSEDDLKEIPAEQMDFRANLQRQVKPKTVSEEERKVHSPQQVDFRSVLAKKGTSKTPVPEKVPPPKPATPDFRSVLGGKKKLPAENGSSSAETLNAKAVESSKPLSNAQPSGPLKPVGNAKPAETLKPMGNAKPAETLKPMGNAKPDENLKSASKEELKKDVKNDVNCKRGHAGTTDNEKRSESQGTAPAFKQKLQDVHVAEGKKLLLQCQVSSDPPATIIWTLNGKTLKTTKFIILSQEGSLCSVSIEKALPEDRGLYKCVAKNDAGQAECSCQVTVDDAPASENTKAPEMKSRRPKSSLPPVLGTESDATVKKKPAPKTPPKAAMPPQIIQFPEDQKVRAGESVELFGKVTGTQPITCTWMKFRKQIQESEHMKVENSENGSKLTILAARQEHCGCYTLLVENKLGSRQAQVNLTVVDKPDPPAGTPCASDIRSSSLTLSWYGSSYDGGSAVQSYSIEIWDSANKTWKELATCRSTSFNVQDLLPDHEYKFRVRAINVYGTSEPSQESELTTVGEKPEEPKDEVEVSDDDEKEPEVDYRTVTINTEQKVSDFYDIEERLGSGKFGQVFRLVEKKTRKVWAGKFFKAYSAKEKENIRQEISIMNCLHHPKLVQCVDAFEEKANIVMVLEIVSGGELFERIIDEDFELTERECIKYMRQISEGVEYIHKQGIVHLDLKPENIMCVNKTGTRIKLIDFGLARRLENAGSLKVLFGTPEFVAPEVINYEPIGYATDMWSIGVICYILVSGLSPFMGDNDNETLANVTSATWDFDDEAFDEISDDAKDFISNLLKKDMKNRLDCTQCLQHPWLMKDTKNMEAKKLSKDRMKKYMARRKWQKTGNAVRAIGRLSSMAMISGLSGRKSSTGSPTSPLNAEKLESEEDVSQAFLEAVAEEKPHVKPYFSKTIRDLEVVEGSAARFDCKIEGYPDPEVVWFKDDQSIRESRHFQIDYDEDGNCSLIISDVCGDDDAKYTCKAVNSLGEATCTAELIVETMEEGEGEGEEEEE", "experiment": "Selectivity interaction (LanthaScreen Eu Kinase Binding Assay) EUB0001632a MYLK", "details": "at 10 µM"}, "[6]": {"biological_target": "Phosphorylase b kinase gamma catalytic chain, skeletal muscle/heart isoform (Homo sapiens) (UniProt Q16816)", "experiment": "Selectivity interaction (KinomeScan (DiscoverX)) EUB0000595a PHKG1", "details": "at 10 µM"}, "[7]": {"biological_target": "Calcium/calmodulin-dependent protein kinase type 1D (Homo sapiens) (UniProt Q8IU85)", "experiment": "Selectivity interaction (KinomeScan (DiscoverX)) EUB0000229b CAMK1D", "details": "at 10 µM"}, "[8]": {"system": "Fibroblast growth factor receptor 3 (Homo sapiens), P22607 [G697C]", "experiment": "(§1) Selectivity interaction (KinomeScan (DiscoverX)) EUB0001079a FGFR3", "details": "at 1 µM"}, "[9]": {"biological_target": "Fibroblast growth factor receptor 3 (Homo sapiens, UniProt P22607)", "experiment": "as §1", "details": "at 1 µM"}, "[10]": {"biological_target": "MAP kinase-activated protein kinase 2 (Homo sapiens, UniProt P49137)", "sequence (P49137 whole entry, looked up)": "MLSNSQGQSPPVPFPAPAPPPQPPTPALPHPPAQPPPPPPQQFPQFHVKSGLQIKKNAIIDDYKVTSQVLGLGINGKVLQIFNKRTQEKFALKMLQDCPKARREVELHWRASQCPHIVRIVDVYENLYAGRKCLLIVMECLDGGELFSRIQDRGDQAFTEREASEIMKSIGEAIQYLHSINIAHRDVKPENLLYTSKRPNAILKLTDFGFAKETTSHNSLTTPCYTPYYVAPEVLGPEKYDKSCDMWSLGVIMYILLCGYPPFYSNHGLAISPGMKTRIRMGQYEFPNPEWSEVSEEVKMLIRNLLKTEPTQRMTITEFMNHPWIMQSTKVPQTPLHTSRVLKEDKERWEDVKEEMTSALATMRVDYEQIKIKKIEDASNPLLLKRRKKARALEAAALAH", "experiment": "Selectivity interaction (ProQinase) EUB0000171b MAPKAPK2"}, "[11]": {"biological_target": "Fibroblast growth factor receptor 4 (Homo sapiens, UniProt P22455)", "sequence (P22455 22-802 limits assumed)": "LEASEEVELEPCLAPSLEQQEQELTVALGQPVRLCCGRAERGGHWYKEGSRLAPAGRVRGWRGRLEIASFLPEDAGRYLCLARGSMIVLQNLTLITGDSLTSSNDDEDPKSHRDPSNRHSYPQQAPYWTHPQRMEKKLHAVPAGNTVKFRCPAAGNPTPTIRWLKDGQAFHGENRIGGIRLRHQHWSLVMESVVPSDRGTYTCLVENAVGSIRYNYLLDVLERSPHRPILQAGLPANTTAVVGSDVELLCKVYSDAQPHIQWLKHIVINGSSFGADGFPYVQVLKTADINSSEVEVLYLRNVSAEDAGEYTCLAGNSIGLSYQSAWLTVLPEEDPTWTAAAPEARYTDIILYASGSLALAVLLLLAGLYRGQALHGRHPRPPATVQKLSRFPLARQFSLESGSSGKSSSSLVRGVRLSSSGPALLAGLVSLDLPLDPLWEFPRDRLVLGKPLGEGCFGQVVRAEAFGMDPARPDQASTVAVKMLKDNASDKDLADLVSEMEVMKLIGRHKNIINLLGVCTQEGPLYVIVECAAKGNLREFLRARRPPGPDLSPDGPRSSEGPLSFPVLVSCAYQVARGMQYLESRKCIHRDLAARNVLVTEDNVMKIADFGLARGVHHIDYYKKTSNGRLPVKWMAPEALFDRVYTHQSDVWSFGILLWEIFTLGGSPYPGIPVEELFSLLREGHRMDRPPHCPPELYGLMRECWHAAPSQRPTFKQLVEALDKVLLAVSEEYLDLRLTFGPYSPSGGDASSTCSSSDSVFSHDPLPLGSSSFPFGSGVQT", "experiment": "Selectivity interaction (KinomeScan (DiscoverX)) EUB0000092b FGFR4", "details": "at 10 µM"}, "[12]": {"biological_target": "Serine/threonine-protein kinase 38 (Homo sapiens) (UniProt Q15208)", "experiment": "Selectivity interaction (KinomeScan (DiscoverX)) EUB0000092b STK38", "details": "at 10 µM"}, "[13]": {"biological_target": "RAC-beta serine/threonine-protein kinase (Homo sapiens) (UniProt P31751)", "sequence (P31751 whole entry)": "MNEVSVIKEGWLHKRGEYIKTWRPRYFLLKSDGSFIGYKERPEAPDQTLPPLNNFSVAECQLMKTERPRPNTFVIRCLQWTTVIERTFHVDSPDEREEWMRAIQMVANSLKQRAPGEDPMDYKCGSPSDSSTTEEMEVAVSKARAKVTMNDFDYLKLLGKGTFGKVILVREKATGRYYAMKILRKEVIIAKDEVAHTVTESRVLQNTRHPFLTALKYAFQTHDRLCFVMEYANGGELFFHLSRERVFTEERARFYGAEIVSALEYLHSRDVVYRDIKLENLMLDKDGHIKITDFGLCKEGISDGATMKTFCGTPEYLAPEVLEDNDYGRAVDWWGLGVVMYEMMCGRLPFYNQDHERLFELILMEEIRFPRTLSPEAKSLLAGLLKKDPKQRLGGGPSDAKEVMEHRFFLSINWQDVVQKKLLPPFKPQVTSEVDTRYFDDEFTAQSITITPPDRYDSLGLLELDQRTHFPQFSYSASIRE", "experiment": "Selectivity interaction (KinomeScan (DiscoverX)) EUB0000045b AKT2"}, "[14]": {"biological_target": "T2, Serine/threonine-protein kinase ICK (Homo sapiens) (UniProt Q9UPZ9)", "T2 sequence (whole entry)": "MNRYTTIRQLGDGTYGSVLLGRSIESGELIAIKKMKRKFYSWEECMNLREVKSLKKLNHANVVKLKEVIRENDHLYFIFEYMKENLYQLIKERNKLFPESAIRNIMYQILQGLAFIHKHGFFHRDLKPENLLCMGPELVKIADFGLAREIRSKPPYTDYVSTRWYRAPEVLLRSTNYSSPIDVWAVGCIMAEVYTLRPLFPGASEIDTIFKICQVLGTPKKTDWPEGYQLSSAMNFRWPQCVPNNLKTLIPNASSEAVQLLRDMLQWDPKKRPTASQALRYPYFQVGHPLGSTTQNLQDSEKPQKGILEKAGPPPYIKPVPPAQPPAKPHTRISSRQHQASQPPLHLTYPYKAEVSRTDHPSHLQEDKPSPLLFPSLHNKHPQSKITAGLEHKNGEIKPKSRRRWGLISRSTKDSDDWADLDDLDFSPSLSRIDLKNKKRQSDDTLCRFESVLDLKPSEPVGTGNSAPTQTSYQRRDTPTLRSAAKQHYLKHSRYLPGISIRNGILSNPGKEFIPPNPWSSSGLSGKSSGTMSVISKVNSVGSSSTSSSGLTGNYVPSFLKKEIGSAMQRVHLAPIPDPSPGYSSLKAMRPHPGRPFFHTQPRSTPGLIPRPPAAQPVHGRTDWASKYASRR", "experiment": "Selectivity interaction (KinomeScan (DiscoverX)) EUB0000655a ICK", "details": "at 10 µM"}, "[15]": {"biological_target": "Serine/threonine-protein kinase MRCK gamma (Homo sapiens) (UniProt Q6DT37)", "experiment": "Selectivity interaction (KinomeScan (DiscoverX)) EUB0001619a CDC42BPG", "details": "at 1 µM"}}, "data": [{"smiles": "Cc1cnc(Nc2ccc(F)cc2Cl)nc1-c1c[nH]c(C(=O)N[C@H](CO)c2cccc(Cl)c2)c1", "values": [{"measurement": "% of inhibition", "setting": "[1]", "value": 2, "unit": "%"}]}, {"smiles": "CCn1c(-c2nc3cc(C(=O)N4CCCC(N)C4)ccc3n2C)cc2ccccc21", "note": "(configuration not stated)", "values": [{"measurement": "pXC50", "setting": "[2]", "value": 5.3, "unit": "M"}]}, {"smiles": "CC[C@@H]1[C@H](F)C(=O)N[C@@H]1COc1nccc2cc(C(N)=O)c(OC)cc12", "note": "[ZIMLOVISERTIB]", "values": [{"measurement": "% of inhibition", "setting": "[3]", "value": -4.7, "unit": "%"}]}, {"smiles": "CCc1cccc(CC)c1NC(=O)c1nn(C)c2c1CCc1cnc(Nc3ccc(C(=O)NC4CCN(C)CC4)cc3OC(F)(F)F)nc1-2", "values": [{"measurement": "IC50", "setting": "[4]", "value": "> 10", "unit": "µM"}]}, {"smiles": "Cn1cc(-n2cnc3c(NCc4nc5cc(Cl)c(Cl)cc5[nH]4)nc(N4CCOCC4)nc32)cn1", "values": [{"measurement": "% of inhibition", "setting": "[5]", "value": -17.4, "unit": "%"}]}, {"smiles": "COCC(=O)NC/C=C/c1ccc2ncnc(Nc3ccc(Oc4ccc(C)nc4)c(C)c3)c2c1", "note": "[CP-724714]", "values": [{"measurement": "% of control", "setting": "[6]", "value": 100, "unit": "%"}]}, {"smiles": "COc1cc(N(C)c2ccnc3ccc(C(F)(F)F)cc23)cc(OC)c1OC", "values": [{"measurement": "% binding", "setting": "[7]", "value": 59, "unit": "%"}]}, {"smiles": "Nc1cnc(N2CCc3cc(S(=O)(=O)Nc4c(F)cc(Cl)cc4F)cc(N4CCCC4=O)c32)nc1", "note": "[TP-020n]", "values": [{"measurement": "% of control", "setting": "[8]", "value": 89, "unit": "%"}, {"measurement": "% of control", "setting": "[9]", "value": 100, "unit": "%"}]}, {"smiles": "C=CC(=O)Nc1cccc(C(=O)Nc2ccc(Nc3cc(-c4[nH]c(SC)nc4C)ccn3)cc2)c1", "values": [{"measurement": "% of control", "setting": "[10]; at 1 µM", "value": 71, "unit": "%"}, {"measurement": "% of control", "setting": "[10]; at 5 µM", "value": 42, "unit": "%"}]}, {"smiles": "CCC(=O)N1CCN(c2ccc(-n3c(=O)ccc4cnc5ccc(-c6cnc7ccccc7c6)cc5c43)cc2C(F)(F)F)CC1", "values": [{"measurement": "% of control", "setting": "[11]", "value": 21, "unit": "%"}, {"measurement": "% of control", "setting": "[12]", "value": 100, "unit": "%"}]}, {"smiles": "C=CC(=O)Nc1cc(-n2c(=O)ccc3cnc4ccc(-c5ccc(NS(C)(=O)=O)cc5)cc4c32)ccc1C", "values": [{"measurement": "% of control", "setting": "[13]; at 1 µM", "value": 100, "unit": "%"}, {"measurement": "% of control", "setting": "[13]; at 10 µM", "value": 100, "unit": "%"}]}, {"smiles": "CN(C)CCOc1ccc(-c2nc(-c3ccncc3)c(-c3ccc4c(c3)CC/C4=N\\O)[nH]2)cc1", "values": [{"measurement": "% of control", "setting": "[14]", "value": 100, "unit": "%"}]}, {"smiles": "N#Cc1cccc(-c2c[nH]c3ncnc(N4CCOCC4)c23)c1", "values": [{"measurement": "% of control", "setting": "[15]", "value": 100, "unit": "%"}]}]}
